Drawing on the NIST ThermoML archive (doi:10.1016/j.tca.2010.05.009), this text covers Normal melting temperature for one compound.

Structures are written as SMILES. Numbers after ± are expanded uncertainties.

For the data set the following is noted: Crystal; Differential scanning calorimeter.

For the compound `CC(C)Cc1ccc(C(C)C(=O)O)cc1` (stereo unspecified) [ibuprofen], the Normal melting temperature worked out at 75.1 ± 1 °C.
